According to patent US4605649A, “Method of treatment of estrogen deficiency disease” (priority 1984, dated 1986):
Like-named read-outs stand apart in the source and are kept apart here.

What was measured:
[1] = tested on: testes of male Syrian hamsters; experiment: Testes weight of male hamsters after s.c. estrogen implant (estrogenicity); type: in vivo; details: for Range Of Testes Weight Of Male Hamsters: 25 mg s.c. pellet (90% estrogen), second pellet at 106 days, four animals per group
Description: In a second method, the weights of both testes of those male Syrian hamsters which were used in the in vivo carcinogenicity assay, were measured on the 224th day after s.c. implantation of 25 mg. pellets of estrogen. The weights were measured in grams (expressed as percent of total body weight).
(§1) Male Syrian hamsters, 3-4 weeks of age (Harlan/Sprague Dawley, Madison, Wis.), were given a 25 mg. s.c. implant consisting of 10% cholesterol and 90% estrogen. A second 25 mg. pellet of the same composition was implanted 106 days after the initial estrogen treatment. Estrogen treatment was carried out according to the procedure of Kirkman--National Cancer Institute Monograph, 2, 1-57 (1959). Control animals were left untreated. Two hundred twenty-four days after treatment with estrogens had begun, hamsters were weighed, killed, both testes were excised and their weights measured in grams. Data presented in Table 1 are the ranges of testes weights from four animals in each group. Weights are expressed as percentages of total body weights.

estrogen receptor [2] = details: relative to estradiol = 100; Heiman et al., J. Med. Chem., 23, 994 (1980); cited from earlier work
estrogen receptor [3] = details: cytosol of hypothalamus-preoptic area, pituitary, uterus; Pfeiffer et al. (1982); cited from earlier work
[4] = tested on: catechol estrogen formation; details: cited from earlier work
[5] = tested on: renal clear cell carcinoma; experiment: In vivo carcinogenicity: renal clear-cell carcinoma in male Syrian hamsters
Description: as §1
The carcinogenicity of the modified estrogens was measured in male Syrian hamsters in vivo. Estrogen, and estrogen alone, causes renal clear cell carcinoma in 100% of the male animal population when exposed to s.c. estrogen implants. This kidney tumor is estrogen-induced and estrogen-dependent for development and growth. Failure to resupply estrogen every three months or surgical removal of implants results in tumor regression within a few weeks. […] The spontaneous kidney tumor incidence in Syrian hamsters without estrogen treatment is very low. The above facts are fully discussed in Kirkman, Nat'l. Can. Inst. Monograph, 1, 1 (1959); McGregor et al., J. Nat'l. Can. Inst., 24, 1057 (1960) and Sirbasku et al., Endocrin., 98, 1260 (1976).
The protocol employed was that set out for determining estrogen activity in male hamsters according to Table 1 (in that the animals examined for tumors at 224 days were the source of the testes). In the carcinogenicity experiment, further groups of animals were examined at 279 and 345 days. The animals were decapitated, the kidneys were excised and inspected visually for the occurrence of renal celear-cell carcinoma. Sections were prepared of all kidneys and studied histologically. In the table, column 1 gives the name of the compound, column 2 the total number of animals, column 3, the number of dead or lost animals and columns 4, 5 and 6 results of histologic examination of animals at the specified time interval for renal clear-cell carcinoma.

protein or peptides = details: cited from earlier work
estrogenic activity = details: catechol metabolites; cited from earlier work
DNA = details: cited from earlier work
[6] = tested on: tumors in experimental animals; details: prolonged treatment; testes, endometrium, ovary, cervix, mammary and other tissues; cited from earlier work
[7] = 224 days after s.c. implantation of estrogen
[8] = 279 days after s.c. implantation of estrogen
[9] = 345 days after s.c. implantation of estrogen

Compound | Range Of Testes Weight Of Male Hamsters ([1]; 224 days) | No. of Animals with Tumors/No. of Animals Examined [5, 7] | No. of Animals with Tumors/No. of Animals Examined [5, 8] | No. of Animals with Tumors/No. of Animals Examined [5, 9] | estrogenic activity (estrogenic activity) | tumor induction [6] | also measured
C[C@]12CC[C@@H]3c4cc(F)c(O)cc4CC[C@H]3[C@@H]1CC[C@@H]2O [2-fluoro-β-estradiol, 2-fluoro-3,17β-estradiol] | 0.18-0.25 % Of Total Body Weight | 0/4 | 0/4 | 0/3 | – | – | estrogenicity (conclusion) ([1]; in words, hamster model): highly estrogenic; estrogen receptor binding affinity, ratio of association constants (Ka compound/Ka estradiol)×100 (estrogen receptor [2]): 86; estrogen receptor affinity (estrogen receptor [3]): high receptor affinity; catechol estrogen formation [4]: reduced catechol estrogen formation; potential for induced renal clear cell carcinomas ([5]; in words, compared with estradiol or 4-fluoro-β-estradiol at equal estrogen dosages): greatly decreased potential; carcinogenicity (conclusion) ([5]; in words, particular animal model): non-carcinogenic
C[C@]12CC[C@@H]3c4cc(O)c(O)cc4CC[C@H]3[C@@H]1CC[C@@H]2O [2-hydroxyestradiol] | – | – | – | – | almost devoid of estrogenic activity | – | covalent binding to protein or peptides (protein or peptides; in vitro): bind covalently; covalent binding to DNA (DNA; in vitro): bind covalently
C[C@]12CC[C@@H]3c4cc(O)c(O)cc4CC[C@H]3[C@@H]1CCC2=O [2-hydroxyestrone] | – | – | – | – | almost devoid of estrogenic activity | – | covalent binding to protein or peptides (protein or peptides): bind covalently; covalent binding to DNA (DNA): bind covalently
C[C@]12CC[C@@H]3c4ccc(O)c(F)c4CC[C@H]3[C@@H]1CC[C@@H]2O [4-fluoro-β-estradiol] | 0.18-0.28 % Of Total Body Weight | 1/4 | 3/6 | 0/3 | – | – | estrogen receptor binding affinity, ratio of association constants (Ka compound/Ka estradiol)×100 (estrogen receptor [2]): 128; estrogen receptor affinity (estrogen receptor [3]): high receptor affinity; catechol estrogen formation ([4]; Krey et al. (1983)): reduced catechol estrogen formation; animals judged histologically to be preneoplastic ([5]; 224 days): 2 of 4
C[C@]12CC[C@@H]3c4ccc(O)c(O)c4CC[C@H]3[C@@H]1CC[C@@H]2O [4-hydroxyestradiol] | – | – | – | – | almost devoid of estrogenic activity | – | covalent binding to protein or peptides (protein or peptides; in vitro): bind covalently; covalent binding to DNA (DNA; in vitro): bind covalently
C[C@]12CC[C@@H]3c4ccc(O)c(O)c4CC[C@H]3[C@@H]1CCC2=O [4-hydroxyestrone] | – | – | – | – | almost devoid of estrogenic activity | – | covalent binding to protein or peptides (protein or peptides): bind covalently; covalent binding to DNA (DNA): bind covalently
CC/C(=C(/CC)c1ccc(O)cc1)c1ccc(O)cc1 [DES, diethylstilbestrol] | – | – | – | – | – | increase the number of tumors | –
C[C@]12CC[C@@H]3c4ccc(O)cc4CC[C@H]3[C@@H]1CC[C@@H]2O [estradiol] | 0.12-0.26 % Of Total Body Weight | 4/4 | 5/5 | 0/4 | – | induce tumors | testes weight relative to untreated hamsters ([1]; 224 days, shrinking to % of the weights of testes in untreated hamsters): approximately 10%
C[C@]12CC[C@@H]3c4ccc(O)cc4CC[C@H]3[C@@H]1C[C@@H](O)[C@@H]2O [estriol] | – | – | – | – | – | induce tumors | –
C[C@]12CC[C@@H]3c4ccc(O)cc4CC[C@H]3[C@@H]1CCC2=O [estrone] | – | – | – | – | – | induce tumors | –
